Laboratory results as given in PubChem BioAssay (NCI).
“And” between values parts separate entries of the source, which are not always exact repeats. Equal entries are not always repeated.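 All cell lines were grown in 96-well plates and treated with compound for 48 hours. GI50 = concentration required for 50% inhibition of growth. Definition used: TGI = concentration required for complete inhibition of growth.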

Columns and labels:
Assay in all cases: NCI tumour cell line growth inhibition, 48 h
A549 NSCLC = test system: A549 NSCLC
MDA-MB-435 = test system: MDA-MB-435
SR leukemia = test system: SR leukemia
SNB-75 CNS = test system: SNB-75 CNS
XF 498 CNS = test system: XF 498 CNS
HS 578T breast = test system: HS 578T breast
MALME-3M melanoma = test system: MALME-3M melanoma
OVCAR-8 ovarian = test system: OVCAR-8 ovarian
SK-MEL-2 melanoma = test system: SK-MEL-2 melanoma
DU-145 prostate = test system: DU-145 prostate
CCRF-CEM leukemia = test system: CCRF-CEM leukemia
SW-620 colon = test system: SW-620 colon
UO-31 renal = test system: UO-31 renal
NCI/ADR-RES ovarian = test system: NCI/ADR-RES ovarian
786-0 renal = test system: 786-0 renal
NCI-H226 lung = test system: NCI-H226 lung
HCC-2998 colon = test system: HCC-2998 colon
EKVX NSCLC = test system: EKVX NSCLC
NCI-H23 lung = test system: NCI-H23 lung
SN12C renal = test system: SN12C renal
K-562 leukemia = test system: K-562 leukemia
ACHN renal = test system: ACHN renal
DMS 273 small cell lung = test system: DMS 273 small cell lung
MCF7 breast = test system: MCF7 breast
HCT-15 colon = test system: HCT-15 colon
P388/ADR leukemia = test system: P388/ADR leukemia
BT-549 breast = test system: BT-549 breast
HOP-62 NSCLC = test system: HOP-62 NSCLC
SF-268 CNS = test system: SF-268 CNS
OVCAR-3 ovarian = test system: OVCAR-3 ovarian
SNB-78 CNS = test system: SNB-78 CNS
A498 renal = test system: A498 renal
P388 leukemia = test system: P388 leukemia
SK-MEL-5 melanoma = test system: SK-MEL-5 melanoma
U251 CNS = test system: U251 CNS
LOX IMVI melanoma = test system: LOX IMVI melanoma
PC-3 prostate = test system: PC-3 prostate
DLD-1 colon = test system: DLD-1 colon
RXF 393 renal = test system: RXF 393 renal
LXFL 529 NSCLC = test system: LXFL 529 NSCLC
MOLT-4 leukemia = test system: MOLT-4 leukemia
SF-295 CNS = test system: SF-295 CNS
OVCAR-4 ovarian = test system: OVCAR-4 ovarian
OVCAR-5 ovarian = test system: OVCAR-5 ovarian
M19-MEL melanoma = test system: M19-MEL melanoma
KM20L2 colon = test system: KM20L2 colon
M14 melanoma = test system: M14 melanoma
NCI-H522 lung = test system: NCI-H522 lung
DMS 114 small cell lung = test system: DMS 114 small cell lung
TK-10 renal = test system: TK-10 renal
UACC-257 melanoma = test system: UACC-257 melanoma
SK-OV-3 ovarian = test system: SK-OV-3 ovarian

Question: How did the GI50 (A549 NSCLC) turn out when O=NN(CCCl)C(=O)NCCCl was run?
Answer: 210 µM

Question: And the TGI (A549 NSCLC)?
Answer: 250 µM and 313 µM and > 379 µM

Question: What about the GI50 (MDA-MB-435) of the same compound?
Answer: 50 µM and 331 µM

Question: And the TGI (MDA-MB-435)?
Answer: 127 µM and 147 µM and > 500 µM

Question: What about the GI50 (SR leukemia) of the same compound?
Answer: 38.5 µM

Question: What about the TGI (SR leukemia) of the same compound?
Answer: 122 µM and 97.7 µM

Question: And the GI50 (SNB-75 CNS)?
Answer: 195 µM

Question: What about the TGI (SNB-75 CNS) of the same compound?
Answer: 127 µM and 128 µM and > 421 µM

Question: What about the TGI (XF 498 CNS) of the same compound?
Answer: 135 µM

Question: And the GI50 (HS 578T breast)?
Answer: 122 µM and 252 µM

Question: And the TGI (HS 578T breast)?
Answer: 205 µM and 231 µM and > 317 µM

Question: What about the GI50 (MALME-3M melanoma) of the same compound?
Answer: 55.9 µM and 216 µM

Question: And the TGI (MALME-3M melanoma)?
Answer: 108 µM and 161 µM and > 294 µM

Question: What about the GI50 (OVCAR-8 ovarian) of the same compound?
Answer: 51.3 µM and > 320 µM

Question: What about the TGI (OVCAR-8 ovarian) of the same compound?
Answer: 164 µM and 197 µM and > 437 µM

Question: What about the TGI (SK-MEL-2 melanoma) of the same compound?
Answer: 115 µM and 178 µM and > 500 µM

Question: What about the GI50 (DU-145 prostate) of the same compound?
Answer: 95 µM and 296 µM

Question: And the TGI (DU-145 prostate)?
Answer: 250 µM and 364 µM and > 377 µM

Question: What about the GI50 (CCRF-CEM leukemia) of the same compound?
Answer: 46 µM and 33.6 µM

Question: And the TGI (CCRF-CEM leukemia)?
Answer: 142 µM and 97.8 µM and 65.6 µM

Question: What about the GI50 (SW-620 colon) of the same compound?
Answer: 40.1 µM and 102 µM

Question: And the TGI (SW-620 colon)?
Answer: 102 µM and 130 µM and 229 µM

Question: And the GI50 (UO-31 renal)?
Answer: 75.9 µM

Question: And the TGI (UO-31 renal)?
Answer: 148 µM and 186 µM and 179 µM

Question: And the GI50 (NCI/ADR-RES ovarian)?
Answer: 61.7 µM and 266 µM

Question: What about the TGI (NCI/ADR-RES ovarian) of the same compound?
Answer: 156 µM and 234 µM and > 422 µM

Question: What about the GI50 (786-0 renal) of the same compound?
Answer: 60 µM and 98.6 µM

Question: What about the TGI (786-0 renal) of the same compound?
Answer: 141 µM and 113 µM and > 263 µM

Question: What about the GI50 (NCI-H226 lung) of the same compound?
Answer: 147 µM and 207 µM

Question: What about the TGI (NCI-H226 lung) of the same compound?
Answer: 250 µM and > 383 µM

Question: And the GI50 (HCC-2998 colon)?
Answer: 63.5 µM and 260 µM

Question: What about the TGI (HCC-2998 colon) of the same compound?
Answer: 161 µM and 201 µM and > 370 µM

Question: What about the GI50 (EKVX NSCLC) of the same compound?
Answer: 152 µM and > 268 µM

Question: What about the TGI (EKVX NSCLC) of the same compound?
Answer: 250 µM and 225 µM and > 326 µM

Question: What about the GI50 (NCI-H23 lung) of the same compound?
Answer: > 272 µM

Question: What about the TGI (NCI-H23 lung) of the same compound?
Answer: 228 µM and 182 µM and > 367 µM

Question: And the GI50 (SN12C renal)?
Answer: 240 µM

Question: And the TGI (SN12C renal)?
Answer: 185 µM and 151 µM and > 310 µM

Question: What about the TGI (K-562 leukemia) of the same compound?
Answer: 44.6 µM and 206 µM and 280 µM

Question: What about the GI50 (ACHN renal) of the same compound?
Answer: 64.4 µM

Question: What about the TGI (ACHN renal) of the same compound?
Answer: 170 µM and 172 µM

Question: And the TGI (DMS 273 small cell lung)?
Answer: 157 µM

Question: And the GI50 (MCF7 breast)?
Answer: 231 µM

Question: And the TGI (MCF7 breast)?
Answer: 250 µM and 191 µM and > 312 µM

Question: What about the GI50 (HCT-15 colon) of the same compound?
Answer: 52.7 µM and 121 µM

Question: And the TGI (HCT-15 colon)?
Answer: 127 µM and 150 µM and > 267 µM

Question: What about the TGI (P388/ADR leukemia) of the same compound?
Answer: 48 µM

Question: What about the GI50 (BT-549 breast) of the same compound?
Answer: 47.3 µM and 251 µM

Question: What about the TGI (BT-549 breast) of the same compound?
Answer: 92.8 µM and 148 µM and > 300 µM

Question: What about the GI50 (HOP-62 NSCLC) of the same compound?
Answer: 64.3 µM and 281 µM

Question: What about the TGI (HOP-62 NSCLC) of the same compound?
Answer: 135 µM and 209 µM and > 389 µM

Question: And the GI50 (SF-268 CNS)?
Answer: 31 µM

Question: What about the TGI (SF-268 CNS) of the same compound?
Answer: 98.4 µM and 138 µM and > 259 µM

Question: And the GI50 (OVCAR-3 ovarian)?
Answer: 63.9 µM and > 295 µM

Question: What about the TGI (OVCAR-3 ovarian) of the same compound?
Answer: 152 µM and 159 µM and > 372 µM

Question: And the TGI (SNB-78 CNS)?
Answer: 198 µM

Question: And the GI50 (A498 renal)?
Answer: 178 µM

Question: And the TGI (A498 renal)?
Answer: 250 µM and 221 µM

Question: And the TGI (P388 leukemia)?
Answer: 40.9 µM

Question: And the GI50 (SK-MEL-5 melanoma)?
Answer: 95.6 µM and 362 µM

Question: And the TGI (SK-MEL-5 melanoma)?
Answer: 250 µM and 161 µM and > 500 µM

Question: And the GI50 (U251 CNS)?
Answer: 31.3 µM and 146 µM

Question: What about the TGI (U251 CNS) of the same compound?
Answer: 66.4 µM and 124 µM and > 306 µM

Question: What about the GI50 (LOX IMVI melanoma) of the same compound?
Answer: 29.5 µM and 170 µM

Question: And the TGI (LOX IMVI melanoma)?
Answer: 67.4 µM and 124 µM and 362 µM

Question: What about the GI50 (PC-3 prostate) of the same compound?
Answer: > 305 µM

Question: And the TGI (PC-3 prostate)?
Answer: 209 µM and > 390 µM

Question: What about the TGI (DLD-1 colon) of the same compound?
Answer: 176 µM

Question: What about the GI50 (RXF 393 renal) of the same compound?
Answer: 45.3 µM and > 238 µM

Question: And the TGI (RXF 393 renal)?
Answer: 86.6 µM and 149 µM and > 299 µM

Question: And the TGI (LXFL 529 NSCLC)?
Answer: 141 µM

Question: And the GI50 (MOLT-4 leukemia)?
Answer: 39.3 µM and 110 µM

Question: What about the TGI (MOLT-4 leukemia) of the same compound?
Answer: 151 µM and 161 µM and 320 µM

Question: And the GI50 (SF-295 CNS)?
Answer: 36.3 µM and 123 µM

Question: And the TGI (SF-295 CNS)?
Answer: 250 µM and 126 µM and > 380 µM

Question: What about the GI50 (OVCAR-4 ovarian) of the same compound?
Answer: 42.7 µM and > 352 µM

Question: What about the TGI (OVCAR-4 ovarian) of the same compound?
Answer: 83.3 µM and 161 µM and > 398 µM

Question: And the GI50 (OVCAR-5 ovarian)?
Answer: 52.3 µM and > 500 µM

Question: What about the TGI (OVCAR-5 ovarian) of the same compound?
Answer: 104 µM and 184 µM and > 500 µM

Question: What about the TGI (M19-MEL melanoma) of the same compound?
Answer: 160 µM

Question: And the TGI (KM20L2 colon)?
Answer: 205 µM

Question: What about the GI50 (M14 melanoma) of the same compound?
Answer: 215 µM

Question: And the TGI (M14 melanoma)?
Answer: 234 µM and 158 µM and > 308 µM

Question: What about the GI50 (NCI-H522 lung) of the same compound?
Answer: 47.7 µM and 102 µM

Question: And the TGI (NCI-H522 lung)?
Answer: 107 µM and 113 µM and 179 µM

Question: What about the TGI (DMS 114 small cell lung) of the same compound?
Answer: 142 µM

Question: And the GI50 (TK-10 renal)?
Answer: 59.6 µM and > 279 µM

Question: What about the TGI (TK-10 renal) of the same compound?
Answer: 144 µM and 173 µM and > 373 µM

Question: And the GI50 (UACC-257 melanoma)?
Answer: > 258 µM

Question: And the TGI (UACC-257 melanoma)?
Answer: 238 µM and 159 µM and > 369 µM

Question: And the GI50 (SK-OV-3 ovarian)?
Answer: 226 µM and > 500 µM

Question: And the TGI (SK-OV-3 ovarian)?
Answer: 250 µM and 211 µM and > 500 µM
